A value given as a limit tells only on which side of the number the result lay.

Assay [1] has as its target T1, hENPP2 (UniProtKB/SwissProt Q13822) (Homo sapiens (Human), UniProt Q13822). The experiment in a line: hENPP2 biochemical assay, LPC as substrate. Particulars: LPC (palmitoyl 16:0) as substrate. In outline: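 Human ENPP2 in 50 mM Tris-HCl pH 8.5, 500 mM NaCl, 5 mM KCl, 10 mM CaCl2, 0.1% fatty-acid-free BSA, reacted 30 min at 37 °C with LPC 16:0 (150 µM solution added 1:1). Released choline measured via choline oxidase/peroxidase/TOOS/4-aminoantipyrine quinoneimine dye at 555 nm; IC50 reported.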

The target of assay [2] is T1, hENPP2. As to the kind of experiment: fluorescent hENPP2 biochemical assay, FS-3 as substrate. Particulars: read-out: FS3-IC50. In outline:
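hENPP2 in 50 mM Tris-HCl pH 8.0, 250 mM NaCl, 5 mM KCl, 1 mM MgCl2, 1 mM CaCl2, 0.1% fatty-acid-free BSA, preincubated with compound 30 min at room temperature. The 0.75 μM FS-3 solution was added and the mixture incubated 30 min at 30° C. Fluorescence (ex 485/em 520 nm) gives IC50.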

With `CCc1nc2ccc(N3CCN(CC(=O)N4CC[C@H](O)C4)CC3)cn2c1N(C)c1nc(-c2ccc(F)cc2)cs1` [Compound 25, (S)-2-(4-(2-ethyl-3-((4-(4-fluorophenyl)thiazol-2-yl)(methyl)amino)imidazo[1,2-a]pyridin-6-yl)piperazin-1-yl)-1-(3-hydroxypyrrolidin-1-yl)ethanone], the IC50 against hENPP2 [1] was in the range of 100 to 500 nM; on hENPP2 [2] it was 0.01 to 100 nM.

`CCOC(=O)CN1CCN(c2ccc3nc(CC)c(N(C)c4nc(-c5ccc(F)cc5)cs4)n3c2)C(=O)C1` [Compound 64, ethyl 2-(4-(2-ethyl-3-((4-(4-fluorophenyl)thiazol-2-yl)(methyl)amino)imidazo[1,2-a]pyridin-6-yl)-3-oxopiperazin-1-yl)acetate]: the IC50 against hENPP2 [1] was > 1000 nM; on hENPP2 [2], 0.01 to 100 nM.

In the case of `CCc1nc2ccc(C3CCN(S(C)(=O)=O)CC3)cn2c1N(C)c1nc(-c2ccc(F)cc2NC(C)=O)cs1` [Compound 106, N-(2-(2-((2-ethyl-6-(1-(methylsulfonyl)piperidin-4-yl)imidazo[1,2-a]pyridin-3-yl)(methyl)amino)thiazol-4-yl)-5-fluorophenyl)acetamide], the concentration for half-maximal inhibition (IC50) was > 1000 nM at hENPP2 [1] and 0.01 to 100 nM on hENPP2 [2].

Turning to `CCc1nc2ccc(C3CCN(S(C)(=O)=O)CC3O)cn2c1N(C)c1nc(-c2ccc(F)cc2)cs1` (stereo not drawn) [Compound 79, 4-(2-ethyl-3-((4-(4-fluorophenyl)thiazol-2-yl)(methyl)amino)imidazo[1,2-a]pyridin-6-yl)-1-(methylsulfonyl) piperidin-3-ol], the IC50 against hENPP2 [1] was > 1000 nM; at hENPP2 [2], 0.01 to 100 nM.

Consider `CCC(=O)N1CCN(c2ccc3nc(CC)c(N(C)c4nc(-c5ccc(F)cc5)cs4)n3c2)CC1` [Compound 51, 1-(4-(2-ethyl-3-((4-(4-fluorophenyl)thiazol-2-yl)(methyl)amino)imidazo[1,2-a]pyridin-6-yl)piperazin-1-yl)propan-1-one], for which the half-inhibitory concentration (IC50) on hENPP2 [1] was > 1000 nM; on hENPP2 [2], 0.01 to 100 nM.

For the compound `CCc1nc2ccc(N3CCN(C(=O)C4CCC(=O)N4)CC3)cn2c1N(C)c1nc(-c2ccc(F)cc2)cs1` (stereo not drawn) [Compound 201, 5-(4-(2-ethyl-3-((4-(4-fluorophenyl)thiazol-2-yl)(methyl)amino)imidazo[1,2-a]pyridin-6-yl)piperazine-1-carbonyl)pyrrolidin-2-one], the results for the IC50 against hENPP2 [1] and on hENPP2 [2] were > 1000 nM and 0.01 to 100 nM, respectively.

On to `CCc1nc2ccc(C3CCN(S(C)(=O)=O)CC3)cn2c1N(C)c1nc(-c2ccc(F)cc2)c(C(N)=O)s1` [Compound 137, 2-((2-ethyl-6-(1-(methylsulfonyl)piperidin-4-yl)imidazo[1,2-a]pyridin-3-yl)(methyl)amino)-4-(4-fluorophenyl)thiazole-5-carboxamide], for which the IC50 on hENPP2 [1] is > 1000 nM; at hENPP2 [2] it was 0.01 to 100 nM.

Regarding `CCc1nc2ccc(C3CCN(CC(=O)N4CC(F)(F)C4)CC3)cn2c1N(C)c1nc(-c2ccc(F)cc2)cs1` [Compound 124, 1-(3,3-difluoroazetidin-1-yl)-2-(4-(2-ethyl-3-((4-(4-fluorophenyl)thiazol-2-yl)(methyl)amino)imidazo[1,2-a]pyridin-6-yl)piperidin-1-yl)ethanone], the IC50 was > 1000 nM at hENPP2 [1] and 0.01 to 100 nM at hENPP2 [2].

Consider `CCc1nc2ccc(C3CCN(S(C)(=O)=O)CC3)cn2c1N(C)c1nc(-c2ccc(F)cc2)c(C)s1` [Compound 101, N-(2-ethyl-6-(1-(methylsulfonyl)piperidin-4-yl)imidazo [1,2-a]pyridin-3-yl)-4-(4-fluorophenyl)-N,5-dimethylthiazol-2-amine], for which the values for the half-maximal inhibitory concentration (IC50) at hENPP2 [1] and at hENPP2 [2] were > 1000 nM and 0.01 to 100 nM, respectively.

As for `CCc1nc2ccc(C3CCN(CC(N)=O)CC3)cn2c1N(C)c1nc(-c2ccc(F)cc2)cs1` [Compound 125, 2-(4-(2-ethyl-3-((4-(4-fluorophenyl)thiazol-2-yl)(methyl)amino)imidazo[1,2-a]pyridin-6-yl)piperidin-1-yl)acetamide], the figures for the IC50 against hENPP2 [1] and on hENPP2 [2] were > 1000 nM and 0.01 to 100 nM, respectively.

Take `CCc1nc2ccc(C3=CN(S(C)(=O)=O)CCC3)cn2c1N(C)c1nc(-c2ccc(Cl)cc2)cs1` [Compound 69, 4-(4-chlorophenyl)-N-(2-ethyl-6-(1-(methylsulfonyl)-1,4,5,6-tetrahydropyridin-3-yl)imidazo[1,2-a]pyridin-3-yl)-N-methylthiazol-2-amine]: the results for the IC50 at hENPP2 [1] and at hENPP2 [2] were > 1000 nM and 0.01 to 100 nM, respectively.

For `CCOC(=O)CN1CCN(c2ccc3nc(CC)c(N(C)c4nc(-c5ccc(F)cc5)cs4)n3c2)CC1` [Compound 36, ethyl 2-(4-(2-ethyl-3-((4-(4-fluorophenyl)thiazol-2-yl)(methyl)amino)imidazo [1,2-a]pyridin-6-yl)piperazin-1-yl)acetate], the IC50 at hENPP2 [1] lay in the range of 100 to 500 nM; at hENPP2 [2] it was 0.01 to 100 nM.

On to `CCc1nc2ccc(C3CCN(Cc4ccccc4)CC3)cn2c1N(C)c1nc(-c2ccc(F)cc2)cs1` [Compound 217, [6-(1-Benzyl-piperidin-4-yl)-2-ethyl-imidazo[1,2-a]pyridin-3-yl]-[4-(4-fluoro-phenyl)-thiazol-2-yl]-methyl-amine], for which the half-maximal inhibitory concentration (IC50) was > 1000 nM on hENPP2 [1] and 0.01 to 100 nM on hENPP2 [2].

With `CCc1nc2ccc(C3CCN(CC(=O)N(C)C)CC3)cn2c1N(C)c1nc(-c2ccc(F)cc2)ns1` [Compound 191, 2-(4-(2-ethyl-3-((3-(4-fluorophenyl)-1,2,4-thiadiazol-5-yl)(methyl)amino)imidazo[1,2-a]pyridin-6-yl)piperidin-1-yl)-N,N-dimethylacetamide], the figures for the IC50 against hENPP2 [1] and on hENPP2 [2] were > 1000 nM and 0.01 to 100 nM, respectively.

Turning to `CCc1nc2ccc(N3CCN(Cc4nnnn4C4CC4)CC3)cn2c1N(C)c1nc(-c2ccc(F)cc2)cs1` [Compound 39, N-(6-(4-((1-cyclopropyl-1H-tetrazol-5-yl)methyl)piperazin-1-yl)-2-ethylimidazo[1,2-a]pyridin-3-yl)-4-(4-fluorophenyl)-N-methylthiazol-2-amine], the results for the IC50 on hENPP2 [1] and on hENPP2 [2] were > 1000 nM and 0.01 to 100 nM, respectively.

On to `CCc1nc2ccc(N3CCN(S(=O)(=O)CC(=O)OC)CC3)cn2c1N(C)c1nc(-c2ccc(F)cc2)cs1` [Compound 59, methyl 2-(4-(2-ethyl-3-((4-(4-fluorophenyl)thiazol-2-yl)(methyl)amino)imidazo[1,2-a]pyridin-6-yl)piperazin-1-ylsulfonyl)acetate], for which the IC50 against hENPP2 [1] was > 1000 nM; at hENPP2 [2] it was 0.01 to 100 nM.

As to `CCc1nc2ccc(N3CCN(C(=O)C4CCN(S(C)(=O)=O)C4)CC3)cn2c1N(C)c1nc(-c2ccc(F)cc2)cs1` (stereo not drawn) [Compound 49, (4-(2-ethyl-3-((4-(4-fluorophenyl)thiazol-2-yl)(methyl)amino)imidazo[1,2-a]pyridin-6-yl)piperazin-1-yl)(1-(methylsulfonyl)pyrrolidin-3-yl) methanone], the 50% inhibitory concentration (IC50) against hENPP2 [1] is > 1000 nM; on hENPP2 [2] it was 0.01 to 100 nM.

Turning to `CCc1nc2ccc(N3CCN(CC(=O)N4CCC(NC(C)=O)C4)CC3)cn2c1N(C)c1nc(-c2ccc(F)cc2)cs1` (stereo not drawn) [Compound 27, N-(1-(2-(4-(2-ethyl-3-((4-(4-fluorophenyl)thiazol-2-yl)(methyl)amino)imidazo[1,2-a]pyridin-6-yl)piperazin-1-yl)acetoyl)pyrrolidin-3-yl)acetamide], the figures for the IC50 against hENPP2 [1] and at hENPP2 [2] were 100 to 500 nM and 0.01 to 100 nM, respectively.

As for `CCc1nc2ccc(N3CCN(CC(=O)NC)CC3)cn2c1N(C)c1nc(-c2ccc(F)cc2)c(C#N)s1` [Compound 22, 2-(4-(3-((5-cyano-4-(4-fluorophenyl)thiazol-2-yl)(methyl)amino)-2-ethylimidazo[1,2-a]pyridin-6-yl)piperazin-1-yl)-N-methylacetamide], the IC50 on hENPP2 [1] and at hENPP2 [2] was 0.01 to 100 nM each time.

Turning to `CCOC(=O)CN1CC=C(c2ccc3nc(CC)c(N(C)c4nc(-c5ccc(F)cc5)cs4)n3c2)CC1` [Compound 108, ethyl 2-(4-(2-ethyl-3-((4-(4-fluorophenyl)thiazol-2-yl)(methyl)amino)imidazo[1,2-a]pyridin-6-yl)-5,6-dihydropyridin-1(2H)-yl)acetate], the values for the IC50 against hENPP2 [1] and on hENPP2 [2] were > 1000 nM and 0.01 to 100 nM, respectively.

For `CCc1nc2ccc(N3CCN(CC(=O)N(C)C)CC3)cn2c1N(C)c1nc(-c2ccc(F)cc2)c(C(=O)C(F)(F)F)s1` [Compound 158, 2-(4-(2-ethyl-3-((4-(4-fluorophenyl)-5-(2,2,2-trifluoroacetoyl)thiazol-2-yl)(methyl)amino)imidazo[1,2-a]pyridin-6-yl)piperazin-1-yl)-N,N-dimethylacetamide], the values for the IC50 at hENPP2 [1] and on hENPP2 [2] were 100 to 500 nM and 0.01 to 100 nM, respectively.

Regarding `CCc1nc2ccc(C3=NC(CO)CO3)cn2c1N(C)c1nc(-c2ccc(F)cc2)cs1` (stereo not drawn) [Compound 239, (2-(2-ethyl-3-((4-(4-fluorophenyl)thiazol-2-yl)(methyl)amino)imidazo[1,2-a]pyridin-6-yl)-4,5-dihydro-oxazol-4-yl)methanol], the figures for the IC50 on hENPP2 [1] and on hENPP2 [2] were > 1000 nM and 0.01 to 100 nM, respectively.

Regarding `CCc1nc2ccc(C3CCN(CC(=O)N4CC(O)C4)CC3)cn2c1N(C)c1nc(-c2ccc(F)cc2C#N)c(C)s1` [Compound 172, 2-(2-((2-ethyl-6-(1-(2-(3-hydroxyazetidin-1-yl)-2-oxoethyl)piperidin-4-yl)imidazo[1,2-a]pyridin-3-yl)(methyl)amino)-5-methylthiazol-4-yl)-5-fluorobenzonitrile], the IC50 on hENPP2 [1] was 100 to 500 nM; at hENPP2 [2], 0.01 to 100 nM.

On to `CCc1nc2ccc(N3CCN(C(=O)C4CC4)CC3)cn2c1N(C)c1nc(-c2ccc(F)cc2)cs1` [Compound 227, Cyclopropyl-[4-(2-ethyl-3-{[4-(4-fluoro-phenyl)-thiazol-2-yl]-methyl-amino}-imidazo[1,2-a]pyridin-6-yl)-piperazin-1-yl]-methanone], for which the results for the IC50 at hENPP2 [1] and at hENPP2 [2] were > 1000 nM and 0.01 to 100 nM, respectively.

Usually IC50 stands for the concentration that gives 50% inhibition.

The values are drawn from patent US9670204B2, “Compounds and pharmaceutical compositions thereof for the treatment of inflammatory disorders” (Galapagos NV, priority 2013, dated 2017).
